Measurements: patent US7258861B2, “TNF-derived peptides for use in treating oedema” (Innogenetics N.V., priority 2001, dated 2007)
Several values for one entry are separate records, joined by “and”; a condition that tells them apart may be missing. Equal entries are not always repeated. Positions of bridges follow the written chain, without caps; N, C: chain ends. No end group written: not given here.

Legend:
isolated rat lungs [1] = assay: Isolated blood perfused flooded rat lung (weight, lung mechanics, PV curves, histology)
Experimental: (§1) Rats. For the ex vivo experiments, 31 Sprague-Dawley rats (300 to 350 g) were tracheotomized and mechanically ventilated (40% oxygen in air) under isoflurane anesthesia. The experimental protocol was reviewed and approved by the Ethics Committee for Animal Research and by the Veterinary Office of our institution. The femoral vessels were cannulated for blood sampling, fluid replacement, and continuous arterial blood pressure monitoring. Following anticoagulation (1.5 IU/g i.v. heparin), 20 ml of blood were withdrawn and replaced by an equal volume of dextran-40 (Macrodex 10% in normosaline) to serve as priming volume for the isolated perfusion circuit. The heart-lung block was prepared as described by Ma et al., 2000, weighed and assigned to one of four groups. […] The lungs were suspended, mechanically ventilated, and perfused at constant pressure with autologous blood as described by Ma et al., 2000.
(§2) An inspiratory and expiratory quasi-static pressure-volume (PV) curve was performed at the end of the 2-hour reperfusion period by inflating and then deflating the lungs at a constant rate (0.3 ml/sec) using an automated infusion pump. A sigh was applied in all groups every 15 minutes to minimize atelectasis formation. The blood pH was maintained between 7.3 and 7.5 and, if necessary, corrected with sodium bicarbonate 8.4% or a change of the inspired CO2 as required by the blood gas analysis. Every 30 minutes, a blood sample was collected for blood gas analysis as well as for hematocrit and electrolyte concentration.
(§3) Inclusion criteria. Immediately following the start of reperfusion, the preparation had to fulfill three technical inclusion criteria: • 1) left atrial pressure (LAP) 5-10 mmHg; • 2) peak airway pressure (AWP) <15 cmH2O; and • 3) pulmonary blood flow (PBF) >10 ml/min. […] The included lungs were then flooded with gentle intratracheal instillation of 2 ml normal saline and the recorded variables measured for 2 subsequent hours.
(§4) Histological analysis. Random lung samples were fixed for light and electron microscopy and analyzed by pathologists blinded to the lung's protocol group assignment.

isolated rat lungs [2] = tested on: isolated rat lungs
Experimental: as §1, §2, §3, §4

[3] = tested on: transplanted left lung of rats; assay: Single left lung transplantation in syngeneic rats; format: in vivo, rat; conditions: 24 hours after transplantation; donor lung pre-treated by intratracheal application, 500 μg/kg
Experimental: Female Wistar of Fischer rats or weighting 250 to 260 g undergo orthotopic single left lung transplantation after 20 hours cold ischemia using a cuff technique for the vessel anastomoses and a conventional running suture for the bronchial anastomosis.
Donor procedure: Animals are anesthetized by intraperitoneal administration of pentobarbital (50 mg/kg) and heparinized (500 I.U./kg). A tracheotomy is performed and the animals are ventilated trough a cannula with 100% O2 by a Harvard rodent ventilator (Harvard apparatus, South Natick, Mass.) at a tidal volume of 10 ml/kg. […] Both lungs are flushed with 20 cc of low-potassium dextran-solution (LPD) (Perfadex®, Kabi Pharmacia, Sweden) at a pressure of 20 cm H2O. The trachea is then tied in end-inspiration. After removal of the heart-lung block, 14 gauge cuffs are placed around the pulmonary artery and vein, and the vessels are inverted and tied onto the cuff. The lung is stored in LPD solution at 4° C. until implantation.
Recipient procedure: Transplantation was performed after 20 hours of cold ischemia (4° C.). The recipient is anesthetized by breathing Halothane in a glass chamber, intubated, and anesthesia is maintained with Halothane 2%. A left lateral thoracotomy is performed in the 4th intercostal space. The left hilium is dissected. […]

[4] = tested on: ex vivo instilled rat lung; assay: Ex vivo rat flooded lung, model of hydrostatic edema
Experimental: In this model edema is induced by instillating 2 ml of 0.9% NaCl solution intratracheally. Alternatively, edema formation can be modulated by varying the height of the venous outflow and the perfusion buffer containing reservoir, or alternatively by varying the time the lung is exposed to the elevated pressure. […] The clearance of alveolar fluid from the lung is calculated by means of measuring the concentration of HSA, which is added to the instillate over time. Alternatively, the over time weight loss as a measure of edema resorption (high weight loss is high liquid clearance), of the artificially instilled lung can be measured. The lung tidal volume, compliance and weight are monitored continuously during the experiment. At the end of the experiment bronchoalveolar fluid and supernatant of lung homogenate is taken for measurement of inflammatory mediators.
The lungs of female Wistar rats (weight 200–250 g; Harlan-Winkelmann, Borchen, Germany) are prepared after terminal i.p. anesthesia by 160 mg/kg pentobarbitural —Na (Merial Ltd, Halbermoos, Germany) and perfused as described by Uhlig and Wolin (1994), and by Uhlig and von Bethmann (1997). All equipment is obtained from Hugo Sachs Electronics (March-Hugstetten, Germany). […] As perfusion medium, a Krebs-Henseleit buffer (38° C.) containing 2% bovine serum albumin (Fraction V, Scrva. Heidelberg, Germany), 0.1% glucose (Riedel-de-Haën Inc., Seelze, Germany), and 0.3% HEPES (ICN Biomedicals Inc., Ohio, USA) is used. The total amount of recirculating buffer is 100 ml. The lungs are suspended by the trachea and ventilated by negative pressure ventilation (inspiratory pressure: −7 cm H2O, expiratory pressure: −2 cm H2O) with 80 breaths per minute resulting in a tidal volume of approximately 2 ml. Every 5 minutes, a deep inspiratory breath (−20 cm H2O) is performed. Artificial thorax chamber pressure is measured with a differential pressure transducer (Validyne DP 45-14), and an air flow velocity with a pneumotachograh tube (Fleisch Type 0000) connected to a differential pressure transducer (Validyne DP 45-15). The perfusate flow (Narcomatic RT-500) and the arterial and venous pressure (Statham P23BB) are continuously monitored. The pH of the perfusate before entering the lung is kept at 7.25 to 7.35 by automatic bubbling of the buffer with CO2 as soon as the pH exceeds this range. A weight transducer is integrated into the chamber lid which allows the continuous assessment of lung weight. Data are recorded on a Pentium II computer using the Mathlab Sofware package (Mathworks, Inc., Nattick Mass., USA). For lung mechanics, the data are analyzed by applying the following formula: P=1/C*VT+RLdV/dT
Where P is chamber pressure, C pulmonary compliance, VT tidal volume, and RL airway resistance. All lung physiology parameters were normalized to time point 0, i.e. after the end of the preconditioning perfusion of 40 minutes.

[5] = tested on: left lung of Fischer (F344) rats; assay: Rat model of lung reperfusion injury (warm ischemia and reperfusion); format: in vivo
Experimental: In a modification of the model of Ohno et al. (1993) male Fischer (F344) rats (200–250 g) undergo clamping of the left pulmonary artery, pulmonary vein and main bronchus for 36 minutes of warm ischemia. After reperfusion of the left lung, the right lung is occluded to assess the function of the left lung for 90 minutes. The peptide is given at 3 minutes after reperfusion by either instillation or intravenous injection via the subclavian vein.
• 1. Anaesthesia of the rat in a glass chamber, 4% Halothane and Oxygen 4/min. • 2. Intubation of the rat with a 1.8 mm catheter, • 3. Shaving the fur on the abdomen and left side of the animal. • 4. Ventilation via the tracheal tube 100/min, 2.5 ml 20% oxygen, Harvard Rodent Ventilator (Harvard Apparatus, South Natick, Mass.), PEEP 5 mm H2O. • 5. A left thoracotomy is carried out in the in 4th intercostal space. • 6. Dissection of the left lung hilar region. • 7. Microvascular clips are placed around the left pulmonary artery (PA), Pulmonary vein (PV) and left main bronchus (B) to induce warm ischemia of the left lung. Small circulation is still ongoing through the right lung. This is the start of the Warm Ischemia Time (WIT). • 8. Anaesthaesia is maintained with 2% Halothane, 40% Oxygen. • 9. A provisory Z suture is made to temporary close the thoracotomy and a gaze sponge is put on the animal to decrease warmth loss. • 10. Near the end of the WIT, a thoracophrenolaparatomy in the midline with thorough electrocaterisation. (two peans on the sternum). • 11. Putting 2-0 Softsilk on the trachea around the intubation tube. • 12. Dissection of the right hilar elements. • 13. Taking away microvascular clips from the left hilar elements. End of WIT of the left lung after 36 minutes. • 14. Putting microvascular clips on right PA and B. Small circulation only through left lung. Start developing of left oedema time (LLOT). • 15. After 3 minutes of LLOT: instillation of the drug in 0.5 ml of 0.9% saline solution (Baxter) or injection of the drug in 0.25–0.3 ml of 0.9% saline through the subclavian vein. • 16. After 6, 30, 60 and 90 minutes of LLOT, puncture of the Aortic Arch (AA) with needle for blood gas analysis in Radiometer ABL 700 Serie, (Denmark). • 17. After each puncture the AA puncture hole is pressed with a cotton swab. • 18. Blood gas analysis is taken every time from AA (the heart rate should be over 60). • 19. After the last blood gas analysis (90 minutes), both lungs are flushed via the PA with 20 ml of 0.9% saline at a pressure of 20 cm H2O. […] The heart-lung block is excised for storage under formaline or in the freezer awaiting immunohistopathological analysis. Alternatively, the lung can be excised without flushing to assess wet to dry ratio's. Results (FIG. 7)

## CGPKDTPEGAELKPWYC (disulfide 1-17; listed as Mus musculus) [cyclic mu Ltip]
Isolated rat lungs [1]; 2 hours reperfusion after 2 ml saline, TNF 5 μg, peptides 1 mg
  lung weight change over time after alveolar flooding: progressively decreased in weight
Isolated rat lungs [1]; 2 hours reperfusion, TNF 5 μg, peptides 1 mg
  lung mechanics (peak AWP, Cdyn, Raw) after alveolar flooding: progressive improvement in lung mechanics
Isolated rat lungs [1]; at 2 hours, 1 mg
  fraction of intratracheal instilled saline lost: approximately half
Isolated rat lungs [1]; end of 2-hour reperfusion, 1 mg
  inflation volume at lower inflection point: 3.4 ± 0.9 mL
Isolated rat lungs [1]; end of 2-hour reperfusion, TNF 5 μg, peptide 1 mg
  lower inflection point of inspiratory quasi-static PV curve: 17.2±1.6 cmH2O
Isolated rat lungs [2]
  leukocyte infiltration (lung histology): did not show this increased leukocyte infiltration

## CGQRETPEGAEAKPWYC [cyclic hum Ltip]
[3]
  pO2: 395+/−95 mmHg
[4]; after intratracheal instillation, summary in words
  clearing alveolar fluid content ex vivo: capable of clearing alveolar fluid content
[4]; measured 80 minutes after instillation, summary in words
  activity in fluid clearance: equally active
[4]; synthetic peptide 1000 μg/lung
  Weight loss of ex vivo instilled rat lung over 80 min: 658 mg and 585 mg and 663 mg and 648 mg and 575 mg and 931 mg and 900 mg and 918 mg
  Weight loss of ex vivo instilled rat lung over 100 min: 1009 mg and 744 mg and 685 mg and 663 mg and 758 mg and 694 mg and 1004 mg and 1000 mg
[5]; 500 μg/kg to 5 μg/kg, data not shown
  pCO2 levels: lower pCO2 levels
[5]; 6 to 90 minutes of LLOT, cyclic hum Ltip 500 μg/kg to 5 μg/kg, hum mut Tip 500 μg/kg
  pO2 blood gas levels: significantly much better pO2 levels
[5]; iv application
  gain in pO2 blood gas: significantly increased gain in pO2 blood gas
